Test results from patent US20020022659A1, “Crystalline and salt forms of an HIV protease inhibitor” (priority 2000, published 2002).
In brackets after ≈: the same amount, converted by molar mass. Blank lines part the entries; values can stand above or below the compound they belong to.

Assays:
[1] = molecular target: HIV protease (Human immunodeficiency virus type 1 group M subtype B, UniProt P04585); assay: HIV protease inhibition (stated as tested, no method given); type: biochemical
[2] = Polymorphic relationship of the mono-methane sulfonate forms (relative stability); type: physicochemical; details: anhydrous monotropic polymorphs of the mono-methane sulfonate; between 20° C. and 206° C.
Excerpt: Form I and Form II are anhydrous monotropic polymorphs. […] Form II, the higher melting form, can be formed directly from crystallization as described above, while Form I can be synthesized using ethyl acetate followed by drying. However, the crystal packing of the ethyl acetate solvate and Form I are distinct from each other confirming that Form I is an actual anhydrous form.

[3] = system: HIV-1 (RF); assay: HIV RNA assay, microplate based compound evaluation in HIV-1 infected MT-2 cells; type: cell-based; details: Human immunodeficiency virus 1, MT2, 72 h; HIV-1 (RF) infected MT-2 cells, 3 days of culture; virus dilutions selected to give this value (inoculum standardisation); read-out: IC90 value (concentration of compound required to reduce the HIV RNA level by 90%)
Procedure: DNA Plasmids and in vitro RNA Transcripts:
Plasmid pDAB 72 containing both gag and pol sequences of BH10 (bp 113-1816) cloned into PTZ 19R was prepared according to Erickson-Viitanen et al. AIDS Research and Human Retroviruses 1989, 5, 577. The plasmid was linearized with Bam HI prior to the generation of in vitro RNA transcripts using the Riboprobe Gemini system II kit (Promega) with T7 RNA polymerase. Synthesized RNA was purified by treatment with RNase free DNAse (Promega), phenol-chloroform extraction, and ethanol precipitation. RNA transcripts were dissolved in water, and stored at −70° C. The concentration of RNA was determined from the A260.
Biotinylated capture probes were purified by HPLC after synthesis on an Applied Biosystems (Foster City, Calif.) DNA synthesizer by addition of biotin to the 5′ terminal end of the oligonucleotide, using the biotin-phosphoramidite reagent of Cocuzza, Tet. Lett. 1989, 30, 6287. […]
MT-2 and MT-4 cells were maintained in RPMI 1640 supplemented with 5% fetal calf serum (FCS) for MT-2 cells or 10% FCS for MT-4 cells, 2 mM L-glutamine and 50 μg/mL gentamycin, all from Gibco. […] Infectious titers of HIV-1(RF) stocks were 1-3×10^7 PFU (plaque forming units)/mL as measured by plaque assay on MT-2 cells (see below). […]

Structure (SMILES): CC(C)CN(C[C@@H](O)[C@H](Cc1ccccc1)NC(=O)[C@@H](NC(=O)CNCc1cccc(F)c1)C(C)(C)C)S(=O)(=O)c1cccc(N)c1 [Compound A]
- HIV protease inhibitor activity [1]: potent HIV protease inhibitor

Structure (SMILES): CC(C)CN(C[C@@H](O)[C@H](Cc1ccccc1)NC(=O)[C@@H](NC(=O)CNCc1cccc(F)c1)C(C)(C)C)S(=O)(=O)c1cccc(N)c1 [Form II]
- Relative stability of polymorphs [2]: more stable than Form I

- IC90 [3]: 0.2 µg/mL (≈ 0.947 µM)
Structure (SMILES): Nc1ccn([C@H]2CC[C@@H](CO)O2)c(=O)n1 [ddC, dideoxycytidine]
